No end group written: not given here.
Assays:
[1] = system: p815 cell; experiment: Cytotoxicity of T lymphocytes from Balb/C mice immunized with pH-sensitive liposomes comprising HIV peptides, Cr51 release; assay type: in vivo, Balb/C mouse; conditions: mice immunized with pH-sensitive liposomes (POPE/CHOH 7:3) comprising the peptide
Method: (§1) In order to investigate whether pH-sensitive liposome as a carrier of peptides can induce CTL response specific to the virus from which the peptides are derived, pH-sensitive liposomes encapsulating synthetic peptides were prepared and cytotoxicity study were carried out in a serial manner. Since the cellular immunity of the pepitides which can bind HLA-A2, a human MHC class I molecule should be investigated employing human body, indirect experiment employing the peptides derived HIV and HCV proteins which can bind mouse MHC Class I molecule(see: Table 4 below), was carried out. In this regard, the pH-sensitive liposome comprising the peptides were obtained employing the phospholipid composition consisting of POPE/CHOH(7:3 in a molar ratio). Then, mice were immunized with the liposomes, T lymphocytes were isolated from the mice, and cytotoxicity of the T lymphocytes after recognition of target cells labelled with Cr^51 was determined.
In case of HIV, Balb/C mouse was immunized with pH-sensitive liposomes comprising R15K or T26K, and at 4 weeks after booster immunization, its spleen was dissected and homogenized in 2 ml of RPMI cell culture medium using a homogenizer. 2 ml of the homogenate thus obtained was added to 2 ml of ficoll and centrifuged at 1,500 rpm for 30 minutes. T lymphocytes located between ficoll and the cell culture medium were separated, added to 15 ml of RPMI-10 cell culture medium, centrifuged at 1,000 rpm, and washed three times with the RPMI-10 medium. The T lymphocytes were diluted to a cell concentration of 5×10^6/ ml into a 24 well-plate, and the immunized peptide antigen was added to a final concentration of 2 μM. Then, the cells were cultured at 37° C. for 3 days in a CO2 incubator containing 5% CO2 and used as effector cells. In case of HCV, 5 week-old C57BL/6 mouse was immunized with liposomes comprising DBL peptide antigen, and T lymphocytes were isolated in the same manner as above and used as effector cells. On the other hand, p815 cell(ATCC TIB64) having MHC Class I same as that of Balb/C mouse was used as a target cell in case of HIV, and RMA cell(see: Hosken, N. A. and Bevan, M. J., J. Exp. Med., 175:719(1992)) or EL4 cell(ATCC TIB39) having MHC Class I same as that of C57BL/6 mouse was used as a target cell in case of HCV.
100 μM of the immunized peptide was added to the respective target cells, reacted at 37° C. for 16 hours, and washed twice with RPMI cell culture medium. Then, radioactive sodium chromate(Cr^51) was added to the cells and reacted at 37° C. for 2 hours in a CO2 incubator. After reaction, the cells were washed sufficiently with RPMI cell culture medium to remove unreacted sodium chromate, mixed with effector cells washed with phosphate buffer solution in various mixing ratios shown in table 5 below, and reacted at 37° C. for 4 hours in a CO2 incubator. The resultant medium was collected and measured for the intensity of gamma ray to determine cytotoxicity of effector cells against target cells(see: Table 5).

[2] = system: T2 cells; experiment: Cytotoxicity of peptide-stimulated blood cells (CTL) against T2 cells sensitized by synthesized peptides, Cr51 release; assay type: cell-based, human; conditions: for Specific cytotoxicity by CTL (%): T2 cells sensitized with 100 μg/ml peptide
Method: That is, blood positive to anti-HBV antibody(value obtained by ELISA: 1.0 or more) is collected from common blood donors, and centrifuged to harvest blood cells. The said peptides added in a concentration of 10 μg/ml to leukocytes remained after removing red blood cells from the blood cells, and incubated at 37° C. in a CO2 incubator maintained to contain 5% CO2. At 2 days after culture, 10 unit of interleukin-2 was added to the culture medium and the cells were further cultivated for 3 days. Then, blood cells having the same MHC were inactivated by mitomycin C and added to the culture medium as stimulating cells. And the peptides and interleukin-2 were added to the medium and the cells were further cultivated for 7 days. Then, it was determined whether the blood cells recognize and destruct T2 cells having a certain peptide at their surface, and the results were shown in Table 3 below and FIG. 2, respectively.
Destruction of T2 cell by cultured blood cell was determined as followings: 100 μg/ml of a peptide was added to T2 cells and reacted at 37° C. for 3 hours. Then, the cells were washed sufficiently to remove unreacted peptides, added with radioactive sodium chromate(Cr^51), and reacted at 37° C. for 2 hours in a CO2 incubator. And then, they were washed with RPMI medium sufficiently to remove unreacted sodium chromate, mixed with blood cells washed with PBS in a certain ratio, and reacted at 37° C. for 4 hours in a CO2 incubator. The resultant medium was collected and measured for intensity of gamma ray to determine cytotoxicity of the blood cells against T2 cell, i.e., target cell.

[3] = molecular target: T1, HLA-A2.1, a human MHC Class I molecule (Homo sapiens, UniProt P04439, D140Y/D185E/D98H/E176V/E277Q/G131W/G231S/I119V/I121R/I166T/I218V/L300P/L318F/N151K/N90K/P208A/P217A/Q86G/Q94H/R138H/R169H/T345S); experiment: Binding of synthetic peptides to MHC Class I molecules at the surface of T2 cell (BB7.2 antibody, fluorocytometry); assay type: cell-based; conditions: peptide 1-100 μg/ml, 37° C., 4 hours; FIG. 1
T1 construct: endogenous in cells; host or cells: T2 cell line
Method: Seven different peptides including the peptides as disclosed in Table 1 above which were derived from HBV X protein were synthesized chemically and dissolved in phosphate buffered saline(hereinafter, referred to as “PBS”). In order to investigate whether the peptides can bind to MHC Class I molecules associated with induction of CTL, each peptide was added to T2 cell line in a concentration of 100, 64, 32, 16, 8, 4, 2 and 1 μg/ml, respectively, and reacted at 37° C. for 4 hours. And then, the cells were washed with PBS to remove unreacted peptides, added with BB7.2 antibody against HLA-A2.1, a human MHC Class I molecule, and reacted at 4° C. for 1 hour. The cells were washed with PBS again, added with fluorescein isothiocyanate(FITC)-conjugated anti-mouse immunoglobulin antibody, and reacted at 4° C. for 1 hour. Then, fluorescence of the cells was determined using fluorocytometer(FACScan, BECTON DICKINSON) and the results were shown in FIG. 1.
However, when T2 cells are cultivated in a medium containing peptides which can bind to MHC molecules, the peptides bind to MHC molecules at the surface of T2 cell to increase stability of MHC molecules, which results in increase in expression of MHC molecule. Based on the knowledge, binding of a specific peptide to MHC molecule at the surface of T2 cell can be analyzed by determining degree of binding of BB7.2 antibody to the cell surface.

[4] = system: RMA cell or EL4 cell; experiment: Cytotoxicity of T lymphocytes from C57BL/6 mice immunized with pH-sensitive liposomes comprising HCV peptide, Cr51 release; assay type: in vivo, C57BL/6 mouse; conditions: mice immunized with pH-sensitive liposomes (POPE/CHOH 7:3) comprising the peptide
Method: as §1
In case of HIV, Balb/C mouse was immunized with pH-sensitive liposomes comprising R15K or T26K, and at 4 weeks after booster immunization, its spleen was dissected and homogenized in 2 ml of RPMI cell culture medium using a homogenizer. 2 ml of the homogenate thus obtained was added to 2 ml of ficoll and centrifuged at 1,500 rpm for 30 minutes. T lymphocytes located between ficoll and the cell culture medium were separated, added to 15 ml of RPMI-10 cell culture medium, centrifuged at 1,000 rpm, and washed three times with the RPMI-10 medium. The T lymphocytes were diluted to a cell concentration of 5×10^6/ ml into a 24 well-plate, and the immunized peptide antigen was added to a final concentration of 2 μM. Then, the cells were cultured at 37° C. for 3 days in a CO2 incubator containing 5% CO2 and used as effector cells. […]
100 μM of the immunized peptide was added to the respective target cells, reacted at 37° C. for 16 hours, and washed twice with RPMI cell culture medium. […] The resultant medium was collected and measured for the intensity of gamma ray to determine cytotoxicity of effector cells against target cells(see: Table 5).

[5] = Ratio of CTL against target cell 5:1
[6] = Ratio of CTL against target cell 10:1
[7] = Ratio of CTL against target cell 25:1

Compound | Specific cytotoxicity by CTL (%) [2, 5] | Specific cytotoxicity by CTL (%) [2, 6] | Specific cytotoxicity by CTL (%) [2, 7] | other results
CC[C@H](C)[C@H](NC(=O)[C@@H](NC(=O)[C@@H](NC(=O)[C@H](Cc1ccccc1)NC(=O)[C@H](C)NC(=O)[C@H](CCCNC(=N)N)NC(=O)CNC(=O)[C@@H]1CCCN1C(=O)CNC(=O)[C@H](CCCNC(=N)N)NC(=O)[C@H](CCC(N)=O)NC(=O)[C@@H](NC(=O)[C@@H](N)CCCNC(=N)N)[C@@H](C)CC)C(C)C)[C@@H](C)O)C(=O)NCC(=O)N[C@@H](CCCCN)C(=O)O [R15K, RIQRGPGRAFVTIGK] | – | – | – | Specific cytotoxicity by CTL (%) ([1]; target cell:effector cell 1:10): 7.5%; Specific cytotoxicity by CTL (%) ([1]; target cell:effector cell 1:20): 15%; Specific cytotoxicity by CTL (%) ([1]; target cell:effector cell 1:30): 25%
HLSLRGLFV [×3, HLSLRGLFV] | 10% | 17% | 20% | –
VLCLRPVGA [×1, VLCLRPVGA] | 6% | 11% | 15% | –
CLFKDWEEL (Hepatitis B virus) [×6, peptide derived from HBV X protein, position 115-123] | 11% | 16% | 23% | Binding to MHC Class I molecules at the surface of T2 cell [3]: successfully bind; Recognition of peptide by cultured blood cells (CTL) ([2]; blood cells from anti-HBV antibody positive donors): recognized by cultured blood cells
AMSTTDLEA [×5, AMSTTDLEA] | 16% | 24% | 31% | –
CC[C@H](C)[C@H](NC(=O)[C@H](CCCNC(=N)N)NC(=O)[C@@H](NC(=O)[C@H](CCCNC(=N)N)NC(=O)[C@H](CCCCN)NC(=O)[C@H](CCCNC(=N)N)NC(=O)[C@@H](NC(=O)[C@H](CC(N)=O)NC(=O)[C@H](CC(N)=O)NC(=O)[C@H](CC(N)=O)NC(=O)[C@@H]1CCCN1C(=O)[C@H](CCCNC(=N)N)NC(=O)[C@@H](N)[C@@H](C)O)[C@@H](C)O)[C@@H](C)CC)C(=O)N[C@@H](CCC(N)=O)C(=O)N[C@@H](CCCNC(=N)N)C(=O)NCC(=O)N1CCC[C@H]1C(=O)NCC(=O)N[C@@H](CCCNC(=N)N)C(=O)N[C@@H](C)C(=O)N[C@@H](Cc1ccccc1)C(=O)N[C@H](C(=O)N[C@H](C(=O)N[C@H](C(=O)NCC(=O)N[C@@H](CCCCN)C(=O)O)[C@@H](C)CC)[C@@H](C)O)C(C)C [T26K] | – | – | – | Specific cytotoxicity by CTL (%) ([1]; target cell:effector cell 1:10): 55%; Specific cytotoxicity by CTL (%) ([1]; target cell:effector cell 1:20): 80%; Specific cytotoxicity by CTL (%) ([1]; target cell:effector cell 1:30): 87%
CC(C)C[C@H](NC(=O)CNC(=O)[C@H](CC(C)C)NC(=O)[C@@H](NC(=O)[C@H](CCCNC(=N)N)NC(=O)[C@H](CCCCN)NC(=O)[C@H](Cc1c[nH]cn1)NC(=O)[C@H](CC(C)C)NC(=O)[C@@H](N)C(C)C)[C@@H](C)O)C(=O)O [×4, VLHKRTLGL] | 8% | 16% | 21% | –
TLPSPSSSA [×2, TLPSPSSSA] | 5% | 10% | 11% | –
DLMGYIPL [D8L, DLMGYIPL] | – | – | – | Specific cytotoxicity by CTL (%) ([4]; target cell:effector cell 1:10): 5.5%; Specific cytotoxicity by CTL (%) ([4]; target cell:effector cell 1:20): 18%; Specific cytotoxicity by CTL (%) ([4]; target cell:effector cell 1:30): 30%
EIRLKVFVL [×7, EIRLKVFVL] | 12% | 19% | 24% | –

— US6380359B1, “Liposomes comprising peptide antigens derived from X protein of hepatitis B virus” (Mogam Biotechnology Research Institute, priority 1998, dated 2002)
